# Laboratory results as given in the supplement of paper PMC6045584.
# ± gives the standard deviation of the averaged measurements.
# Compound: CC(=O)NCC(=O)N1[C@@H]2CC[C@H]1c1ccc(Nc3ncc(C(F)(F)F)c(NC4CCC4)n3)cc12
# Assay: area under dose-response curve of surviving fraction (unscaled, Aref=0) (surviving fraction x log10(nM)); higher = more resistant
# Details: exposure time: 5 days; dose range 0.5-1000 nM
# Summary of the method: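 Inhibitor was applied to tumour cell lines at eight concentrations (0.5 to 1000 nM) for five days in 384-well plates. Luminescence from CellTiter-Glo, scaled to DMSO-only wells, gave surviving fractions in three screens per line, and these were fitted by 3-parameter logistic regression with the drc R package. The area under the curve is an unscaled activity area. Aref was 0, and dose was on a log10 scale.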
row,Test System,area under dose-response curve
1,HS57T LUNG,2.46

# Compound: COCC[n+]1c2c(n(Cc3cnccn3)c1C)C(=O)c1ccccc1C2=O [YM155]
# Assay: surviving fraction relative to DMSO-only wells; higher = less growth inhibition
# Details: 0.5 nM; exposure time: 5 days
# Summary of the method: (§1)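 Inhibitors were tested at 0.5, 1, 5, 10, 50, 100, 500 and 1000 nM, applied continuously for five days beginning 24 hours after log-phase tumour cells were seeded at 250–500 per well in 384-well plates. CellTiter-Glo luminescence served as the viability measure, expressed as surviving fraction against the median of DMSO-only wells. Each line, screened three times, was kept only with replicate Pearson r >0.7 and median Z' >0.3.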
row,Test System,surviving fraction
1,U2OS BONE,1.02 ± 0.026
2,H23 LUNG,0.78 ± 0.053
3,DU4475 BREAST,0.934 ± 0.11
4,SKBR3 BREAST,0.89 ± 0.03
5,SUM149 BREAST,0.87 ± 0.17

# Same assay, conditions: 1 nM; exposure time: 5 days
row,Test System,surviving fraction
1,U2OS BONE,1.005 ± 0.0056
2,H23 LUNG,0.822 ± 0.056
3,DU4475 BREAST,0.805 ± 0.044
4,SKBR3 BREAST,0.849 ± 0.055
5,SUM149 BREAST,1.07 ± 0.061

# Same assay, conditions: 5 nM; exposure time: 5 days
row,Test System,surviving fraction
1,U2OS BONE,0.616 ± 0.036
2,H23 LUNG,0.125 ± 0.014
3,DU4475 BREAST,0.839 ± 0.08
4,SKBR3 BREAST,0.825 ± 0.024
5,SUM149 BREAST,0.81 ± 0.064

# Same assay, conditions: 10 nM; exposure time: 5 days
row,Test System,surviving fraction
1,U2OS BONE,0.304 ± 0.043
2,H23 LUNG,0.113 ± 0.003
3,DU4475 BREAST,0.903 ± 0.21
4,SKBR3 BREAST,0.53 ± 0.071
5,SUM149 BREAST,0.445 ± 0.093

# Same assay, conditions: 50 nM; exposure time: 5 days
row,Test System,surviving fraction
1,U2OS BONE,0.033 ± 0.001
2,H23 LUNG,0.0233 ± 0.0021
3,DU4475 BREAST,0.108 ± 0.025
4,SKBR3 BREAST,0.0403 ± 0.012
5,SUM149 BREAST,0.044 ± 0.001

# Same assay, conditions: 100 nM; exposure time: 5 days
row,Test System,surviving fraction
1,U2OS BONE,0.023
2,H23 LUNG,0.02 ± 0.0017
3,DU4475 BREAST,0.0437 ± 0.008
4,SKBR3 BREAST,0.0253 ± 0.0067
5,SUM149 BREAST,0.0257 ± 0.0035

# Same assay, conditions: 500 nM; exposure time: 5 days
row,Test System,surviving fraction
1,U2OS BONE,0.021
2,H23 LUNG,0.0163 ± 0.0011
3,DU4475 BREAST,0.0273 ± 0.0015
4,SKBR3 BREAST,0.0247 ± 0.0074
5,SUM149 BREAST,0.0203 ± 0.0032

# Same assay, conditions: 1000 nM; exposure time: 5 days
row,Test System,surviving fraction
1,U2OS BONE,0.0247 ± 0.00058
2,H23 LUNG,0.0227 ± 0.0015
3,DU4475 BREAST,0.0337 ± 0.0038
4,SKBR3 BREAST,0.0243 ± 0.0058
5,SUM149 BREAST,0.023 ± 0.0036

# Compound: COc1cc2ncnc(Nc3ccc(F)c(Cl)c3)c2cc1OCCCN1CCOCC1 [GEFITINIB]
# Assay: as above
# Details: 0.5 nM; exposure time: 5 days
# Summary of the method: as §1
row,Test System,surviving fraction
1,U2OS BONE,1.03 ± 0.057
2,H23 LUNG,1.01 ± 0.07
3,DU4475 BREAST,0.921 ± 0.068
4,SKBR3 BREAST,1 ± 0.18
5,SUM149 BREAST,1.16 ± 0.077

# Same assay, conditions: 1 nM; exposure time: 5 days
row,Test System,surviving fraction
1,U2OS BONE,0.9987 ± 0.0084
2,H23 LUNG,0.997 ± 0.032
3,DU4475 BREAST,0.955 ± 0.045
4,SKBR3 BREAST,1.04 ± 0.14
5,SUM149 BREAST,1.15 ± 0.098
